System: Plasmopara viticola
Experiment: activity against peronospora of grapevines caused by Plasmopara viticola (protective spray test on potted vines)
Type: in vivo, Plasmopara viticola on vines of the cultivar "Riesling"
Settings: individual active compound, untreated control 92% infection
Description: The active compounds, separately or jointly, were prepared as a stock solution comprising 0.25% by weight of active compound in acetone or DMSO. 1% by weight of the emulsifier Uniperol® EL (wetting agent having emulsifying and dispersant action based on ethoxylated alkylphenols) was added to this solution, and the mixture was diluted with water to the desired concentration.
Use example—activity against peronospora of grapevines caused by Plasmopara viticola Leaves of potted vines of the cultivar “Riesling” were sprayed to runoff point with an aqueous suspension having the concentration of active compound stated below. The next day, the undersides of the leaves were inoculated with an aqueous zoospore suspension of Plasmopara viticola. The grapevines were then initially placed in a water-vapor-saturated chamber at 24° C. for 48 hours and then in a greenhouse at 20-30° C. for 5 days. After this period of time, the plants were again placed in a humid chamber for 16 hours to promote sporangiophore eruption. The extent of the development of the disease on the undersides of the leaves was then determined visually.
The visually determined percentages of infected leaf areas were converted into efficacies in % of the untreated control:
The efficacy (E) is calculated as follows using Abbot's formula: E=(1−[…] )·100 α corresponds to the fungicidal infection of the treated plants in % and β corresponds to the fungicidal infection of the untreated (control) plants in % An efficacy of 0 means that the infection level of the treated plants corresponds to that of the untreated control plants; an efficacy of 100 means that the treated plants were not infected.
The expected efficacies of mixtures of active compounds were determined using Colby's formula (Colby, S. R. “Calculating synergistic and antagonistic responses of herbicide combinations”, Weeds, 15, 20-22, 1967) and compared with the observed efficacies.
Colby's formula: E=x+y−x·y/100
E expected efficacy, expressed in % of the untreated control, when using the mixture of the active compounds A and B at the concentrations a and b x efficacy, expressed in % of the untreated control, when using the active compound A at the concentration a y efficacy, expressed in % of the untreated control, when using the active compound B at the concentration b

| SMILES | Efficacy in % of the untreated control (4 ppm in the spray liquor) | Efficacy in % of the untreated control (16 ppm in the spray liquor) | Efficacy in % of the untreated control (63 ppm in the spray liquor) |
| --- | --- | --- | --- |
| OC(c1ccc(Cl)cc1)(c1cncnc1)c1ccccc1Cl (stereo not shown) [compound II, (4-chlorophenyl)(2-chlorophenyl)pyrimidin-5-ylmethanol] | 2% | 2% | 2% |
| CC1CCN(c2c(-c3c(F)cc(F)cc3F)c(Cl)nc3ncnn23)CC1 [compound I, 5-chloro-7-(4-methylpiperidin-1-yl)-6-(2,4,6-trifluorophenyl)-[1,2,4]triazolo[1,5-a]pyrimidine] | – | 56% | – |

Source: patent publication US20070161652A1, “Fungicidal mixtures” (BASF Aktiengesellschaft, priority 2004, published 2007)
